Test results from US20230091047A1 (priority 2019, published 2023).

Assays:
[1] = test system: HBV (HepG2.117 cell line, inducibly HBV producing); test: Anti-HBV activity: intracellular HBV DNA by real-time PCR in HepG2.117 cells after 3 days of treatment; format: cell-based, hepatitis B virus; details: Hepatitis B virus, HepG2.117, 72 h, HepG2.117 cells, 3 days of treatment, intracellular HBV DNA by real-time PCR; mean value; read-out: EC50 (μM, mean value)
Outline: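 Readout is intracellular HBV DNA, measured by real-time PCR with HBV-specific primers and probe after 3 days of exposure to serial compound dilutions. Cells are the stable HepG2.117 line, where HBV replication is induced in the absence of doxycycline.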

[2] = in vitro; format: cell-based; details: human, HepG2 or HepG2.117 cells, 3-days incubation (unmarked values), ATPlite; mean value
Outline: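 Luminescent ATP quantitation served as the viability endpoint following a 3- or 4-day incubation with test compounds.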

SMILES: C#C[C@H](C)Nc1nc2c(c(=O)n1-c1ccc(C(=O)NC)cc1)C[C@@H](C)N(C(=O)c1ccc(Cl)c(Cl)c1)C2 [Compound C302, 4-[(6R)-2-{[(2S)-but-3-yn-2-yl]amino}-7-(3,4-dichlorobenzoyl)-6-methyl-4-oxo-5,6,7,8-tetrahydropyrido[3,4-d]pyrimidin-3(4H)-yl]-N-methylbenzamide]
- EC50 [1]: 0.06 µM
- CC50 at 3 days [2]: > 50 µM

SMILES: CNC(=O)c1ccc(-n2c(N3CCC3(C)C)nc3c(c2=O)C[C@@H](C)N(C(=O)c2ccc(Cl)c(Cl)c2)C3)cc1 [Compound C303, 4-[(6R)-7-(3,4-dichlorobenzoyl)-2-(2,2-dimethylazetidin-1-yl)-6-methyl-4-oxo-5,6,7,8-tetrahydropyrido[3,4-d]pyrimidin-3(4H)-yl]-N-methylbenzamide]
- EC50 [1]: 0.07 µM
- CC50 at 3 days [2]: 26.7 µM

SMILES: CNC(=O)c1ccc(-n2c(NC(C)C)nc3c(c2=O)C[C@@H](C)N(C(=O)c2ccc(Cl)c(Cl)c2)C3)nc1 [Compound C304, 6-[(6R)-7-(3,4-dichlorobenzoyl)-6-methyl-4-oxo-2-[(propan-2-yl)amino]-5,6,7,8-tetrahydropyrido[3,4-d]pyrimidin-3(4H)-yl]-N-methylpyridine-3-carboxamide]
- EC50 [1]: 0.07 µM
- CC50 at 3 days [2]: > 50 µM

SMILES: CNc1noc2cc(-n3c(NC(C)C)nc4c(c3=O)C[C@@H](C)N(C(=O)c3ccc(Cl)c(Cl)c3)C4)ccc12 [Compound C305, (6R)-7-(3,4-dichlorobenzoyl)-6-methyl-3-[3-(methylamino)-1,2-benzoxazol-6-yl]-2-[(propan-2-yl)amino]-5,6,7,8-tetrahydropyrido[3,4-d]pyrimidin-4(3H)-one]
- EC50 [1]: 0.07 µM
- CC50 at 3 days [2]: > 50 µM

SMILES: CNC(=O)c1ccc(-n2c(N[C@@H](C)c3cccc(F)c3)nc3c(c2=O)C[C@@H](C)N(C(=O)c2ccc(Cl)c(Cl)c2)C3)cc1 [Compound C306, 4-[(6R)-7-(3,4-dichlorobenzoyl)-2-{[(1S)-1-(3-fluorophenyl)ethyl]amino}-6-methyl-4-oxo-5,6,7,8-tetrahydropyrido[3,4-d]pyrimidin-3(4H)-yl]-N-methylbenzamide]
- EC50 [1]: 0.08 µM
- CC50 at 3 days [2]: 19.3 µM

SMILES: CNC(=O)c1ccc(-n2c(N3CCCC3(C)C)nc3c(c2=O)C[C@@H](C)N(C(=O)c2ccc(Cl)c(Cl)c2)C3)cc1 [Compound C307, 4-[(6R)-7-(3,4-dichlorobenzoyl)-2-(2,2-dimethylpyrrolidin-1-yl)-6-methyl-4-oxo-5,6,7,8-tetrahydropyrido[3,4-d]pyrimidin-3(4H)-yl]-N-methylbenzamide]
- EC50 [1]: 0.09 µM
- CC50 at 3 days [2]: 28 µM

SMILES: Cc1cc(-n2cccn2)ccc1-n1c(NC(C)C)nc2c(c1=O)C[C@@H](C)N(C(=O)c1ccc(Cl)c(Cl)c1)C2 [Compound C308, (6R)-7-(3,4-dichlorobenzoyl)-6-methyl-3-[2-methyl-4-(1H-pyrazol-1-yl)phenyl]-2-[(propan-2-yl)amino]-5,6,7,8-tetrahydropyrido[3,4-d]pyrimidin-4(3H)-one]
- EC50 [1]: 0.11 µM
- CC50 at 3 days [2]: > 50 µM

SMILES: CC(C)Nc1nc2c(c(=O)n1-c1ccc(-c3nccn3C)cc1Cl)C[C@@H](C)N(C(=O)c1ccc(Cl)c(Cl)c1)C2 [Compound C313, (6R)-3-[2-chloro-4-(1-methyl-1H-imidazol-2-yl)phenyl]-7-(3,4-dichlorobenzoyl)-6-methyl-2-[(propan-2-yl)amino]-5,6,7,8-tetrahydropyrido[3,4-d]pyrimidin-4(3H)-one]
- EC50 [1]: 0.12 µM
- CC50 at 3 days [2]: 24.4 µM

SMILES: CNC(=O)c1ccc(-n2c(N[C@@H](C)c3ccccc3F)nc3c(c2=O)C[C@@H](C)N(C(=O)c2ccc(Cl)c(Cl)c2)C3)cc1 [Compound C316, 4-[(6R)-7-(3,4-dichlorobenzoyl)-2-{[(1S)-1-(2-fluorophenyl)ethyl]amino}-6-methyl-4-oxo-5,6,7,8-tetrahydropyrido[3,4-d]pyrimidin-3(4H)-yl]-N-methylbenzamide]
- EC50 [1]: 0.13 µM
- CC50 at 3 days [2]: 27.8 µM
